In brackets after ≈: the same amount, converted by molar mass. Where two headings read alike, the source gives them in different places.
Key:
[1] = system: Pb-infected mice; experiment: in vivo efficacy scouting assay against blood stages; set-up: species or system P. berghei; mice; details: for activities in these scout assays: result in words; for inhibition in vivo at 50 mg/kg: Plasmodium berghei, 144 h, read-out: % Inhibition Day 6 PI
Protocol: The screening involved a single oral 50 mg/kg dose 1 day post infection (PI) and an assessment of parasitemia on days 3 PI and 6 PI (Table 6).
The screening was performed by treating two infected mice with a single 50 mg/kg oral dose of test compound suspended in PEG400 on day 1 postexposure (PE) followed by assessing parasitemia on days 3 and 6 PE.

[2] = system: P. berghei sporozoites expressing luciferase; experiment: in vitro liver stage activity, luciferase sporozoites infecting HEPG2 hepatoma cells; type: cell-based; details: Plasmodium berghei, HEPG2 cells
[3] = system: malarial strain W2 (pyrimethamine and chloroquine-resistant); experiment: in vitro antimalarial activity against multidrug resistant strain W2; type: cell-based, P. falciparum; details: Plasmodium falciparum
[4] = system: J774 mammalian cells; experiment: cytotoxicity to J774 cells; type: cell-based; details: Mus musculus, J774, read-out: EC50 J774 (μM)
Protocol: This allowed a simplified method for comparing the different assays being simultaneously run. Additionally, each compound was also tested for cytotoxicity using mammalian J774 cell lines in a 96-well plate format.^12-14, 16

[5] = lipophilicity log D at pH 7.4; type: physicochemical; details: octanol/water
Excerpt: (§1) Furthermore, to profile the properties of the piperazinyl-4(1H)-quinolones, and to identify potential limitations, aqueous solubility and lipophilicity log D were experimentally determined via LC/MS-based assays as described by the Manetsch laboratory previously^8,10,31,32 (Tables 9-12). Encouragingly, the piperazinyl-4(1H)-quinolones were much more soluble than the previously described phenoxyethoxy-4(1H)-quinolone analogues.^19 As expected, the solubility of all compounds was affected by pH, with better solubility under more acidic conditions.
(§2) In parallel to testing the compounds for in vitro antimalarial activity, a limited structure-property relationship (SPR) study focusing on log D and aqueous solubility was conducted to assess potential physiochemical liabilities (FIG. 22). […] For these reasons, physicochemical properties were not strongly considered as selection criteria for in vivo efficacy studies.

[6] = aqueous solubility (LC/MS- or HPLC-based assay); type: physicochemical
Excerpt: as §1, §2

[7] = system: malarial strain TM90-C2B (mefloquine, chloroquine, atovaquone, and pyrimethamine-resistant); experiment: microbe, parasite or virus in culture; type: cell-based, P. falciparum; details: for EC50: Plasmodium falciparum, TM90, read-out: EC50 TM90-C2B (nM); for RI: RI = EC50 TM90-C2B/EC50 W2
Excerpt: Ideally, the RI of a compound should lie between 0.3 and 3.0 in order to avoid rapidly inducing resistance in the parasite. […]

[8] = single oral 50 mg/kg dose 1 day PI, vs untreated animals
[9] = aqueous medium, pH 2, simulated gastric fluid, pH 2.0, read-out: Solubility pH 2.0
[10] = single oral 50 mg/kg dose 1 day PI
[11] = aqueous solution, pH 2, simulated gastric fluid, pH 2.0, read-out: Solubility pH 2.0
[12] = aqueous solution, pH 6.5, aqueous buffer, pH 6.5, read-out: Solubility pH 6.5
[13] = aqueous solution (buffer not named), pH 2, simulated gastric fluid, pH 2.0, read-out: Solubility pH 2.0
[14] = aqueous solution (buffer not named), pH 6.5, aqueous buffer, pH 6.5, read-out: Solubility pH 6.5
[15] = aqueous medium, pH 6.5, aqueous buffer, pH 6.5, read-out: Solubility pH 6.5

Row | SMILES | % Inhibition Day 6 PI [1, 8] | EC50 [2] [nM] | EC50 ([3]; read-out: EC50 W2 (nM)) [nM] | EC50 [4] [µM] | chromatographic logD [5] | solubility [6, 9] [µM] | activities in these scout assays [1, 10] | EC50 [7] [nM] | solubility [6, 11] [µM] | solubility [6, 12] [µM] | RI [7] | solubility [6, 13] [µM] | solubility [6, 14] [µM] | inhibition in vivo at 50 mg/kg [1, 8] [%] | solubility [6, 15] [µM] | Solubility pH 2.0 (μM) ([6]; pH 2.0) | Solubility pH 6.5 (μM) ([6]; pH 6.5) | inhibition in vivo at 50 mg/kg ([1]; po) [%] | % Inhibition Day 3 PI [1, 8] | EC50 ([3]; read-out: EC50 W2) [nM]
1 | COC(=O)c1c[nH]c2cc(N3CCN(c4ccccc4)CC3)ccc2c1=O [Compound 8a, Methyl 4-oxo-7-(4-phenylpiperazin-1-yl)-1,4-dihydroquinoline-3-carboxylate] | little to moderate protection | 74.1 | 4.45 | > 20 | 2.58 | 1 to 19.9 (≈ 0.363 to 7.23 µg/mL) | – | – | – | – | – | – | – | – | – | – | – | – | – | –
2 | COC(=O)c1c[nH]c2cc(CN3CCN(c4ccc(F)cc4)CC3)c(OC)cc2c1=O [Compound 8aa, Methyl 7-((4-(4-fluorophenyl)piperazin-1-yl)methyl)-6-methoxy-4-oxo-1,4-dihydroquinoline-3-carboxylate] | 56.9% | 32.3 | 1.79 | > 20 | 1.31 | – | excellent activities | 218 | 60 to 79.9 (≈ 25.5 to 34 µg/mL) | ≥ 80 | – | – | – | – | – | – | – | – | – | –
3 | COC(=O)c1c[nH]c2ccc(CN3CCN(c4ccccc4)CC3)cc2c1=O [Compound 8af, Methyl 4-oxo-6-((4-phenylpiperazin-1-yl)methyl)-1,4-dihydroquinoline-3-carboxylate] | – | 90.5 | 151 | > 20 | 2.03 | – | – | 3200 | – | – | 21.2 | ≥ 80 | 20 to 39.9 (≈ 7.55 to 15.1 µg/mL) | – | – | – | – | – | – | –
4 | COC(=O)c1c[nH]c2ccc(CN3CCN(c4ccc(OC)cc4)CC3)cc2c1=O [Compound 8ag, Methyl 6-((4-(4-methoxyphenyl)piperazin-1-yl)methyl)-4-oxo-1,4-dihydroquinoline-3-carboxylate] | little to moderate protection | > 100 | 164 | > 20 | 1.91 | – | – | 2900 | – | – | 17.7 | ≥ 80 | 20 to 39.9 (≈ 8.15 to 16.3 µg/mL) | – | – | – | – | – | – | –
5 | COC(=O)c1c[nH]c2ccc(CN3CCN(c4ccc(C(F)(F)F)cc4)CC3)cc2c1=O [Compound 8ai, Methyl 4-oxo-6-((4-(4-(trifluoromethyl)phenyl)piperazin-1-yl)methyl)-1,4-dihydroquinoline-3-carboxylate] | – | 85 | 45.2 | > 20 | 3.01 | – | – | 2900 | – | – | 64.2 | ≥ 80 | 1 to 19.9 (≈ 0.445 to 8.86 µg/mL) | – | – | – | – | – | – | –
6 | COC(=O)c1c[nH]c2cc(N3CCN(Cc4ccccc4)CC3)ccc2c1=O [Compound 8b, Methyl 7-(4-benzylpiperazin-1-yl)-4-oxo-1,4-dihydroquinoline-3-carboxylate] | – | 84.5 | 16.2 | > 20 | 2.21 | 60 to 80 (≈ 22.6 to 30.2 µg/mL) | – | – | – | – | – | – | – | ~40 | 60 to 80 (≈ 22.6 to 30.2 µg/mL) | 60-79.9 μM | 60-79.9 μM | – | – | –
7 | COC(=O)c1c[nH]c2cc(N3CCN(c4ccc(OC)cc4)CC3)c(OC)cc2c1=O [Compound 8f, Methyl 6-methoxy-7-(4-(4-methoxyphenyl)piperazin-1-yl)-4-oxo-1,4-dihydroquinoline-3-carboxylate] | – | > 100 | 42.9 | > 20 | 2.48 | – | – | 1980 | 60 to 79.9 (≈ 25.4 to 33.8 µg/mL) | 20 to 39.9 (≈ 8.47 to 16.9 µg/mL) | 46.2 | – | – | – | – | – | – | – | – | –
8 | COC(=O)c1c[nH]c2cc(N3CCN(Cc4ccccc4)CC3)c(C)cc2c1=O [Compound 8g, Methyl 7-(4-benzylpiperazin-1-yl)-6-methyl-4-oxo-1,4-dihydroquinoline-3-carboxylate] | – | > 100 | 13.2 | > 20 | 2.37 | ≥ 80 | – | 982 | – | – | 74.4 | – | – | – | ≥ 80 | – | – | – | – | –
9 | COC(=O)c1c[nH]c2cc(CN3CCN(Cc4ccccc4)CC3)ccc2c1=O [Compound 8k, Methyl 7-((4-benzylpiperazin-1-yl)methyl)-4-oxo-1,4-dihydroquinoline-3-carboxylate] | little to moderate protection | 43.7 | 1.41 | 10.4 | 2.06 | ≥ 80 | – | 153 | – | – | – | – | – | – | ≥ 80 | – | – | – | – | –
10 | COC(=O)c1c[nH]c2cc(CN3CCN(c4ccc(F)cc4)CC3)ccc2c1=O [Compound 8o, Methyl 7-((4-(4-fluorophenyl)piperazin-1-yl)methyl)-4-oxo-1,4-dihydroquinoline-3-carboxylate] | – | 1.06 | 1.75 | 2 | 2.38 | – | excellent activities | 131 | ≥ 80 | ≥ 80 | 74.9 | – | – | – | – | – | – | > 85 | full inhibition | –
11 | COC(=O)c1c[nH]c2cc(CN3CCN(c4ccc(C(F)(F)F)cc4)CC3)ccc2c1=O [Compound 8p, Methyl 4-oxo-7-((4-(4-(trifluoromethyl)phenyl)piperazin-1-yl)methyl)-1,4-dihydroquinoline-3-carboxylate] | completely inhibited parasite growth | 15.6 | 0.315 | 10.7 | 3.23 | – | excellent activities | 122 | ≥ 80 | 1 to 19.9 (≈ 0.445 to 8.86 µg/mL) | 387 | – | – | – | – | – | – | > 85 | full inhibition | –
12 | COC(=O)c1c[nH]c2cc(CN3CCN(c4ccccc4)CC3)c(C)cc2c1=O [Compound 8q, Methyl 6-methyl-4-oxo-7-((4-phenylpiperazin-1-yl)methyl)-1,4-dihydroquinoline-3-carboxylate] | little to moderate protection | 6.92 | 0.435 | 11.9 | 2.81 | ≥ 80 | – | 147 | – | – | 338 | – | – | – | 60 to 79.9 (≈ 23.5 to 31.3 µg/mL) | – | – | – | – | –
13 | COC(=O)c1c[nH]c2cc(CN3CCN(Cc4ccccc4)CC3)c(C)cc2c1=O [Compound 8r, Methyl 7-((4-benzylpiperazin-1-yl)methyl)-6-methyl-4-oxo-1,4-dihydroquinoline-3-carboxylate] | little to moderate protection | 9.46 | 1.45 | > 20 | 1.94 | ≥ 80 | – | 890 | – | – | – | – | – | – | ≥ 80 | – | – | – | – | –
14 | COC(=O)c1c[nH]c2cc(CN3CCN(c4ccc(OC)cc4)CC3)c(C)cc2c1=O [Compound 8t, Methyl 7-((4-(4-methoxyphenyl)piperazin-1-yl)methyl)-6-methyl-4-oxo-1,4-dihydroquinoline-3-carboxylate] | – | 4.11 | 0.575 | > 20 | 2.61 | – | – | 177 | ≥ 80 | 20 to 39.9 (≈ 8.43 to 16.8 µg/mL) | 308 | – | – | – | – | – | – | – | – | –
15 | COC(=O)c1c[nH]c2cc(CN3CCN(c4ccc(F)cc4)CC3)c(C)cc2c1=O [Compound 8u, Methyl 7-((4-(4-fluorophenyl)piperazin-1-yl)methyl)-6-methyl-4-oxo-1,4-dihydroquinoline-3-carboxylate] | – | 2.64 | 0.843 | 15.7 | 2.9 | – | – | 348 | ≥ 80 | 40 to 59.9 (≈ 16.4 to 24.5 µg/mL) | – | – | – | – | – | – | – | – | – | 0.843
